Assay results as given in ChEMBL document CHEMBL4330138, “Discovery of new indole-based acylsulfonamide Nav1.7 inhibitors” (Bioorg Med Chem Lett, 2019).

Tests used:
[1] = biological target: T1, Sodium channel protein type 9 subunit alpha (Homo sapiens, UniProt Q15858); experiment: Inhibition of human Nav1.7 at -60 mV holding potential by cell-based IonWorks barracuda automated electrophysiology method
Target sequence in this assay (Q15858 whole entry): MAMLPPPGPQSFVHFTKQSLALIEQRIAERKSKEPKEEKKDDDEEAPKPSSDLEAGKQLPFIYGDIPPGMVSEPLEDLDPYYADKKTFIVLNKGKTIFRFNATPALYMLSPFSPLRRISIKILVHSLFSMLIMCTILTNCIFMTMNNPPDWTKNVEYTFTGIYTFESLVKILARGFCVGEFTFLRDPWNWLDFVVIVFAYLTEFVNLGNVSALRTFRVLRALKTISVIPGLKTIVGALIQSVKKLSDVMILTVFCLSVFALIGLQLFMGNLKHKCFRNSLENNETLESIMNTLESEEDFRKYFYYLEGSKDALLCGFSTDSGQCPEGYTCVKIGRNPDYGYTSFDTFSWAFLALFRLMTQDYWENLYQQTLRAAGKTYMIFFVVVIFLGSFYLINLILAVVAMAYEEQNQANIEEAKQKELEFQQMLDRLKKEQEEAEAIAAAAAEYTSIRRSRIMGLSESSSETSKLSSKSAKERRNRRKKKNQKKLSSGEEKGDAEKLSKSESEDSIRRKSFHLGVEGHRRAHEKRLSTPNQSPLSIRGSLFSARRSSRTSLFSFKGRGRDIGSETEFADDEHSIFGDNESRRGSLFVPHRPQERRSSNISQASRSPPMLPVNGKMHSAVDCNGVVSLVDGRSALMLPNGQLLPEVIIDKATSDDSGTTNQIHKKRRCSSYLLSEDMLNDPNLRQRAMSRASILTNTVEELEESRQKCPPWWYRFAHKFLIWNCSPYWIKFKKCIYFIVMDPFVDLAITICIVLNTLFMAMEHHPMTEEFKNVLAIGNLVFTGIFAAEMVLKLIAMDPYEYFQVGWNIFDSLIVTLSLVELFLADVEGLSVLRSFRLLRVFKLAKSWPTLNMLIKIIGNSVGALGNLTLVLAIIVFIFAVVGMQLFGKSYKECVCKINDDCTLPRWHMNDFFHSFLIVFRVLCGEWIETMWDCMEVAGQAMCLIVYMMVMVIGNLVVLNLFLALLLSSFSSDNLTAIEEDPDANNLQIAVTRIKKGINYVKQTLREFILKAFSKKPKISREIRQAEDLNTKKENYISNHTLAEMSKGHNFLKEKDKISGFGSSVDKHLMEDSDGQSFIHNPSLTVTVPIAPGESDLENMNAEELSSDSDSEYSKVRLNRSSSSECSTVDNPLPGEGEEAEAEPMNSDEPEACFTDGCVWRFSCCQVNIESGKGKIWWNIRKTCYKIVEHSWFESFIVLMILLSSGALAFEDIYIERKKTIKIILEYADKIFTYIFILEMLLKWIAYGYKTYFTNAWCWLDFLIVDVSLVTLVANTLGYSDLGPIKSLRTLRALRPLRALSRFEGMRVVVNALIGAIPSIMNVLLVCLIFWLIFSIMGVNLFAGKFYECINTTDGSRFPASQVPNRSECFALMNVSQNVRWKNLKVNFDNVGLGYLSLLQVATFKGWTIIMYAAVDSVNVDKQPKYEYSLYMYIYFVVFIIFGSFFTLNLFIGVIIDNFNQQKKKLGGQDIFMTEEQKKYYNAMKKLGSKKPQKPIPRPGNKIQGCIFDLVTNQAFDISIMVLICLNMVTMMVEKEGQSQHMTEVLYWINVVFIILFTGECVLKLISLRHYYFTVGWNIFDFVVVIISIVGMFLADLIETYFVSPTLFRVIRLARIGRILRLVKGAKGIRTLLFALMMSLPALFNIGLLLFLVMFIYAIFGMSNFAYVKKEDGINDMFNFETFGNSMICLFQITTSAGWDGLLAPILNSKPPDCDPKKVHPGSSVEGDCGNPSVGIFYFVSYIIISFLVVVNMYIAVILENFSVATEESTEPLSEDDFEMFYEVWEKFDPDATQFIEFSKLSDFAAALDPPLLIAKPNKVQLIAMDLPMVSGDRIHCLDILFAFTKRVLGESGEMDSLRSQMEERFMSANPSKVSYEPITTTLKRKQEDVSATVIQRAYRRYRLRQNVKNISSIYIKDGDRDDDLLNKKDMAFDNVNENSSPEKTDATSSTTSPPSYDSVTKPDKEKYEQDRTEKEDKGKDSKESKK

[2] = biological target: Sodium channel protein type 5 subunit alpha (Homo sapiens, UniProt Q14524); experiment: Inhibition of human Nav1.5 at -50 mV holding potential by cell-based IonWorks barracuda automated electrophysiology method; format: ADME
Sodium channel protein type 5 subunit alpha, sequence (Q14524 whole entry): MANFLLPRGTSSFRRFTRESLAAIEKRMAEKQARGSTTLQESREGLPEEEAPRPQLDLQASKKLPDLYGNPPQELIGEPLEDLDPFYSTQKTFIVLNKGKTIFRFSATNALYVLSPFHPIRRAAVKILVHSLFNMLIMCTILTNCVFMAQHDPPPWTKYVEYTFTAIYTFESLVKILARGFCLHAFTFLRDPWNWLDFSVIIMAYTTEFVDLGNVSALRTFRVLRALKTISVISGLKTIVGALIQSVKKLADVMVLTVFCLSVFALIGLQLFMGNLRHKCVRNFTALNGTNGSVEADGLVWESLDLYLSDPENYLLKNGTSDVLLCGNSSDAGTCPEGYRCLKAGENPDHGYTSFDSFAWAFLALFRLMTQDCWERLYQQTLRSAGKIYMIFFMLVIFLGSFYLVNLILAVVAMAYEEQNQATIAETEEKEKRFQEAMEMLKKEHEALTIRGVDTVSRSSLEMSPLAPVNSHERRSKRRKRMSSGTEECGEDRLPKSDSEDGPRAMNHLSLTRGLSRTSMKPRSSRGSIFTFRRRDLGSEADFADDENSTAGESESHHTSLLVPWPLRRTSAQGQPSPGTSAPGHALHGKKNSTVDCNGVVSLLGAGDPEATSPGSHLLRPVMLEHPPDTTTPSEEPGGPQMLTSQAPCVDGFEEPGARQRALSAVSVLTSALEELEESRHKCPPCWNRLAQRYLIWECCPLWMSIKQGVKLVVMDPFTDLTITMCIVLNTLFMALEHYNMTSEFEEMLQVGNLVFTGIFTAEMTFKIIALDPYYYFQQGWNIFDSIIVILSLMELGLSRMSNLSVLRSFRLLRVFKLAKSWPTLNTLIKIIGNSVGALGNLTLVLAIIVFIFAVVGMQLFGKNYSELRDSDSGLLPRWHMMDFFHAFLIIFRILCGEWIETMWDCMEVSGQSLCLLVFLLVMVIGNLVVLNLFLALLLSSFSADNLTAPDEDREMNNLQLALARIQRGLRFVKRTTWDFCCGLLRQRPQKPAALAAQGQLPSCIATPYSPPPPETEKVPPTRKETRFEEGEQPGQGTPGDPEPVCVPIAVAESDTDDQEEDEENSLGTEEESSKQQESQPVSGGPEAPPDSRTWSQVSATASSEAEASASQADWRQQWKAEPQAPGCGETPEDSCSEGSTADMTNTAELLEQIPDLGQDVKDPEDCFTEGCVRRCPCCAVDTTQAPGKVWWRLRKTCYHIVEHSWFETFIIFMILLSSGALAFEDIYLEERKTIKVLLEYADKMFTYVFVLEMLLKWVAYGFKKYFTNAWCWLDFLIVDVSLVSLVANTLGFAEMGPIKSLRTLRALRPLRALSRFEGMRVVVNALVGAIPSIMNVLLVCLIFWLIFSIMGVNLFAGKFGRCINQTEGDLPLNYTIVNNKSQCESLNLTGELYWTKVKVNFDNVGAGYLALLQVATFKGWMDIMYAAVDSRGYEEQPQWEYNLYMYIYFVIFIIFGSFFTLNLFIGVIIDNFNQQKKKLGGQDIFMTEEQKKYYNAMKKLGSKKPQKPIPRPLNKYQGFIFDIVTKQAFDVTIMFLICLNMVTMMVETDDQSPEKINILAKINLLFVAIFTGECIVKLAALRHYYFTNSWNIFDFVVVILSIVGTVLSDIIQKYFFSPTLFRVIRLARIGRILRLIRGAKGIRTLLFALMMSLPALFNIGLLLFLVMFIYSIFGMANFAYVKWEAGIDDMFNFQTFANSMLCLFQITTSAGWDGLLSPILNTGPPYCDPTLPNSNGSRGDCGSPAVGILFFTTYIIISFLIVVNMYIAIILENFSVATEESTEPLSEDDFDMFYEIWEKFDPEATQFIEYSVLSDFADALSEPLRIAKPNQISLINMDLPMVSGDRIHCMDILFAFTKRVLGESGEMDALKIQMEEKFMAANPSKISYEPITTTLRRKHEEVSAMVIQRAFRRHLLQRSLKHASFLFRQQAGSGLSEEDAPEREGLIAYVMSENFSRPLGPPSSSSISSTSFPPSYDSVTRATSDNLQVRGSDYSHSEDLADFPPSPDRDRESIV

[3] = Permeability across apical to basolateral side in human Caco2 cells; format: ADME, cell-based; details: Caco-2, read-out: permeability
[4] = Permeability across basolateral to apical side in human Caco2 cells; format: ADME, cell-based; details: Caco-2, read-out: permeability
[5] = Efflux ratio of permeability from basolateral to apical side over apical to basolateral side in human Caco2 cells; format: ADME, cell-based; details: Caco-2
[6] = biological target: CYP450 (Cytochrome P450 family, isoform not stated) (Homo sapiens, UniProt P04798+P05177+P05181+P08684+P10632+P10635+P11509+P11712+P13584+P20813+P20815+P20853+P24462+P24903+P33260+P33261+P51589+P78329+P98187+Q02928+Q08477+Q16678+Q16696+Q5TCH4+Q6VVX0+Q7Z449+Q8TAV3+Q96SQ9+Q9HB55); experiment: Inhibition of human CYP450; format: ADME, protein assay
[7] = biological target: T1, Sodium channel protein type 9 subunit alpha; experiment: Inhibition of human Nav1.7 at -60 mV holding potential by cell-based manual patch clamp electrophysiology method
Target sequence in this assay (Q15858 whole entry): as the sequence (Q15858 whole entry) above

Homo sapiens = species: Homo sapiens; experiment: Selectivity ratio of IC50 for human Nav1.5 to IC50 for human Nav1.7
[8] = biological target: T1, Sodium channel protein type 9 subunit alpha; experiment: Ratio of IC50 for human Nav1.7 at -60 mV holding potential by cell-based manual patch clamp electrophysiology method to IC50 for human Nav1.7 at -60 mV holding potential by cell-based IonWorks barracuda automated electrophysiology method
Target sequence in this assay (Q15858 whole entry, looked up): as the sequence (Q15858 whole entry) above

[9] = biological target: T1, Sodium channel protein type 9 subunit alpha; experiment: Ratio of IC50 for human Nav1.7 at -60 mV holding potential by cell-based IonWorks barracuda automated electrophysiology method to IC50 for human Nav1.7 at -60 mV holding potential by cell-based manual patch clamp electrophysiology method
Target sequence in this assay (Q15858 whole entry, looked up): as the sequence (Q15858 whole entry) above

| Structure (SMILES) | IC50 [1] [nM] | IC50 [2] [nM] | other results |
| --- | --- | --- | --- |
| Cn1cc(C2CCCCCC2)c2ccc(C(=O)NS(=O)(=O)C3CC3)cc21 | 116 | – | – |
| Cn1cc(C2C3CC4CC2CN(C4)C3)c2ccc(C(=O)NS(=O)(=O)C3CC3)cc21 (stereo not drawn) | > 30000 | > 30000 | – |
| Cn1ccc2ccc(C(=O)NS(=O)(=O)C3CC3)cc21 | > 30000 | > 30000 | – |
| Cn1cc(C2CCCNC2)c2ccc(C(=O)NS(=O)(=O)C3CC3)cc21 (stereo not drawn) | > 30000 | > 30000 | – |
| CCC(c1cn(C)c2cc(C(=O)NS(=O)(=O)C3CC3)ccc12)C(C)(C)C (stereo not drawn) | 1200 | > 30000 | – |
| Cn1cc(C(C)(C)C)c2ccc(C(=O)NS(=O)(=O)C3CC3)cc21 | 1100 | > 30000 | – |
| Cc1cn(C2CCCCC2)c2ccc(C(=O)NS(=O)(=O)C3CC3)cc12 | 37 | 13000 | Papp A→B [3]: 10.6 ×10⁻⁶ cm/s; Papp B→A [4]: 21.9 ×10⁻⁶ cm/s; efflux ratio [5]: 2.1; IC50 [6]: > 10000 nM |
| O=C(NS(=O)(=O)C1CC1)c1ccc2c(C3CCCCC3)c3n(c2c1)CCCCC3=O | 1500 | – | – |
| C[C@H]1CC[C@@H](c2cn(C)c3cc(C(=O)NS(=O)(=O)C4CC4)ccc23)C1 | 62 | 5400 | – |
| Cc1cn(C2C=CCCC2)c2ccc(C(=O)NS(=O)(=O)C3CC3)cc12 (stereo not drawn) | 72 | 460 | – |
| Cn1cc(C2CCCCC2)c2ccc(C(=O)NS(=O)(=O)C3CC3)cc21 | 42 | 2400 | IC50 [7]: 55 nM; Ratio IC50 (Homo sapiens): 57 |
| CN1CCC(c2cn(C)c3cc(C(=O)NS(=O)(=O)C4CC4)ccc23)CC1 | > 30000 | > 30000 | – |
| Cn1cc(C2=CCOCC2)c2ccc(C(=O)NS(=O)(=O)C3CC3)cc21 | 20000 | > 30000 | – |
| Cc1cn(C)c2cc(C(=O)NS(=O)(=O)C3CC3)ccc12 | > 30000 | > 30000 | – |
| Cn1cc(C2C3CC4CC(C3)CC2C4)c2ccc(C(=O)NS(=O)(=O)C3CC3)cc21 (stereo not drawn) | 79 | 8400 | – |
| Cn1cc(C2(C)CCCCO2)c2ccc(C(=O)NS(=O)(=O)C3CC3)cc21 (stereo not drawn) | > 30000 | > 30000 | – |
| Cn1cc(C2CCCC(C)(C)C2)c2ccc(C(=O)NS(=O)(=O)C3CC3)cc21 (stereo not drawn) | 48 | 4100 | – |

| Structure (SMILES) | IC50 [1] [nM] | IC50 [2] [nM] | other results |
| --- | --- | --- | --- |
| Cn1cc(C2CCN(C(=O)OC(C)(C)C)CC2)c2ccc(C(=O)NS(=O)(=O)C3CC3)cc21 | 388 | > 30000 | IC50 [7]: 383 nM |
| Cn1c(-c2ccc(C#N)nc2)c(C2CCCCC2)c2ccc(C(=O)NS(=O)(=O)C3CC3)cc21 | 123 | – | IC50 [7]: 366 nM; Ratio IC50 [8]: 3 |
| Cn1c(-c2ccoc2)c(C2CCCCC2)c2ccc(C(=O)NS(=O)(=O)C3CC3)cc21 | 440 | – | – |
| Cn1cc(C2CCNCC2)c2ccc(C(=O)NS(=O)(=O)C3CC3)cc21 | > 30000 | > 30000 | – |
| Cn1cc(C2=CCNCC2)c2ccc(C(=O)NS(=O)(=O)C3CC3)cc21 | > 30000 | > 30000 | – |
| Cn1c(-c2ccc(N3CCCC3)nc2)c(C2CCCCC2)c2ccc(C(=O)NS(=O)(=O)C3CC3)cc21 | – | – | IC50 [7]: 38 nM |
| C[C@@H]1CC[C@@H](c2cn(C)c3cc(C(=O)NS(=O)(=O)C4CC4)ccc23)C1 | 509 | > 30000 | – |
| Cn1cc(C2CCCCC2)c2cc(F)c(C(=O)NS(=O)(=O)C3CC3)cc21 | 30 | > 10000 | IC50 [7]: 14 to 30 nM; Papp A→B [3]: 12.9 ×10⁻⁶ cm/s; Papp B→A [4]: 16 ×10⁻⁶ cm/s; efflux ratio [5]: 1.2; IC50 [6]: > 10000 nM |
| Cn1cc(C2CCC2)c2ccc(C(=O)NS(=O)(=O)C3CC3)cc21 | 360 | 6700 | – |
| COc1ncc(-c2c(C3CCCCC3)c3ccc(C(=O)NS(=O)(=O)C4CC4)cc3n2C)cc1C#N | – | – | IC50 [7]: 85 nM |
| Cn1cc(C2CCCN(C(=O)OC(C)(C)C)C2)c2ccc(C(=O)NS(=O)(=O)C3CC3)cc21 (stereo not drawn) | 388 | > 30000 | – |
| Cc1nn(-c2cnc(OCC3(C)CC3)c(Cl)c2)c2ccc(C(=O)NS(C)(=O)=O)cc12 | – | – | IC50 [7]: 8 nM |
| Cn1cc(C2=CCN(C(=O)OC(C)(C)C)CC2)c2ccc(C(=O)NS(=O)(=O)C3CC3)cc21 | 635 | > 30000 | – |
| Cn1c(-c2cnc(N3CCOCC3)nc2)c(C2CCCCC2)c2ccc(C(=O)NS(=O)(=O)C3CC3)cc21 | – | – | IC50 [7]: 30 nM |
| O=C(NS(=O)(=O)C1CC1)c1ccc2c(C3CCCCC3)c3n(c2c1)CCCCC3O (stereo not drawn) | > 30000 | – | – |
| Cn1cc(C2CCC(C(C)(C)C)CC2)c2ccc(C(=O)NS(=O)(=O)C3CC3)cc21 (stereo not drawn) | 45 | – | – |
| COc1ncc(-c2c(C3CCCCC3)c3ccc(C(=O)NS(=O)(=O)C4CC4)cc3n2C)cn1 | 195 | – | IC50 [7]: 46 nM; Ratio IC50 [9]: 4 |
